Test results from ChEMBL document CHEMBL4049402, “Synthesis and cytotoxic activity of novel tetrahydrobenzodifuran-imidazolium salt derivatives” (Bioorg Med Chem Lett, 2017).

What was measured:
Format in all cases: functional, cell-based
HL-60 = test: Cytotoxicity against human HL60 cells after 48 hrs by MTT assay
A549 = test: Cytotoxicity against human A549 cells after 48 hrs by MTT assay
SW480 = test: Cytotoxicity against human SW480 cells after 48 hrs by MTT assay
SMMC-7721 = test: Cytotoxicity against human SMMC7721 cells after 48 hrs by MTT assay
MCF7 = test: Cytotoxicity against human MCF7 cells after 48 hrs by MTT assay

Row | Structure (SMILES) | IC50 (HL-60; Homo sapiens, HL-60, 48 h) [µM] | IC50 (A549; Homo sapiens, A549, 48 h) [µM] | IC50 (SW480; Homo sapiens, SW480, 48 h) [µM] | IC50 (SMMC-7721; Homo sapiens, SMMC-7721, 48 h) [µM] | IC50 (MCF7; Homo sapiens, MCF7, 48 h) [µM] | IC50 (SMMC-7721; smmc-7721) [µM] | IC50 (HL-60; hl-60) [µM] | IC50 (A549; a549) [µM] | IC50 (SW480; sw480) [µM] | IC50 (MCF7; mcf7) [µM]
1 | Cc1cc2c(cc1C)[n+](Cc1ccc([N+](=O)[O-])cc1)cn2Cc1c2c(cc3c1OCC3)OCC2 | > 20 | > 20 | > 20 | > 20 | > 20 |  |  |  |  | 
2 | Cc1cc2c(cc1C)[n+](CC(=O)c1ccc3ccccc3c1)cn2Cc1c2c(cc3c1OCC3)OCC2 | 1.95 | 7.77 | 14 | 5.64 | 8.67 |  |  |  |  | 
3 | c1ccc2c(c1)ncn2Cc1c2c(cc3c1OCC3)OCC2 | > 20 | > 20 | > 20 | > 20 | > 20 |  |  |  |  | 
4 | Cc1cc2c(cc1C)[n+](CC(=O)c1ccc(Br)cc1)cn2Cc1c2c(cc3c1OCC3)OCC2 [listing 1 of 2 here] | 4.04 | 8 | 16.3 |  | 12.7 | 6.23 |  |  |  | 
5 | Cc1nc2ccccc2n1Cc1c2c(cc3c1OCC3)OCC2 | > 20 | > 20 | > 20 | > 20 | > 20 |  |  |  |  | 
6 | Cc1n(Cc2c3c(cc4c2OCC4)OCC3)c2ccccc2[n+]1CC(=O)c1ccccc1 | > 20 | > 20 | > 20 | > 20 | > 20 |  |  |  |  | 
7 | Brc1ccc(C[n+]2ccn(Cc3c4c(cc5c3OCC5)OCC4)c2)cc1 | > 20 | > 20 | > 20 | > 20 | > 20 |  |  |  |  | 
8 | Cc1cc2c(cc1C)[n+](Cc1ccc(Br)cc1)cn2Cc1c2c(cc3c1OCC3)OCC2 [listing 1 of 2 here] | 0.49 | 6.9 | 10.1 | 4.72 | 6.85 |  |  |  |  | 
9 | O=[N+]([O-])c1ccc(C[n+]2ccn(Cc3c4c(cc5c3OCC5)OCC4)c2)cc1 | > 20 | > 20 | > 20 | > 20 | > 20 |  |  |  |  | 
10 | Cc1cc2ncn(Cc3c4c(cc5c3OCC5)OCC4)c2cc1C | > 20 | > 20 | > 20 | > 20 | > 20 |  |  |  |  | 
11 | COc1ccc(C(=O)C[n+]2c(C)n(Cc3c4c(cc5c3OCC5)OCC4)c3ccccc32)cc1 | 5.14 | > 20 | 10.1 | > 20 | 7.87 |  |  |  |  | 
12 | O=C(C[n+]1ccn(Cc2c3c(cc4c2OCC4)OCC3)c1)c1ccc(Br)cc1 | > 20 | > 20 | > 20 | > 20 | > 20 |  |  |  |  | 
13 | Cc1ccc(C[n+]2c(C)n(Cc3c4c(cc5c3OCC5)OCC4)c3ccccc32)cc1 | > 20 | > 20 | > 20 | > 20 | > 20 |  |  |  |  | 
14 | Cc1cc2c(cc1C)[n+](CC(=O)c1ccccc1)cn2Cc1c2c(cc3c1OCC3)OCC2 | 5.68 | > 20 | 11.9 | 17.4 | 7.8 |  |  |  |  | 
15 | Cc1n(Cc2c3c(cc4c2OCC4)OCC3)c2ccccc2[n+]1CC(=O)c1ccc(Br)cc1 | 4.7 | > 20 | 8.29 | 11.8 | 6.43 |  |  |  |  | 
16 | Brc1ccccc1C[n+]1cn(Cc2c3c(cc4c2OCC4)OCC3)c2ccccc21 | 4.9 | > 20 | 8.95 | > 20 | 8.3 |  |  |  |  | 
17 | O=C(C[n+]1cn(Cc2c3c(cc4c2OCC4)OCC3)c2ccccc21)c1ccc2ccccc2c1 | 1.88 | 7.73 | 5.42 | 5.25 | 2.2 |  |  |  |  | 
18 | Brc1ccc(C[n+]2cn(Cc3c4c(cc5c3OCC5)OCC4)c3ccccc32)cc1 | 4.12 | > 20 | 10.1 | 17.8 | 5.4 |  |  |  |  | 
19 | COc1ccc(C(=O)C[n+]2cn(Cc3c4c(cc5c3OCC5)OCC4)c3cc(C)c(C)cc32)cc1 | 2.71 | 15.4 | 13.7 | 6.87 | 9.87 |  |  |  |  | 
20 | Cc1ccc(C[n+]2cn(Cc3c4c(cc5c3OCC5)OCC4)c3cc(C)c(C)cc32)cc1 [listing 1 of 2 here] |  |  |  |  |  | 6.49 | 0.38 | 4.06 | 6.31 | 7.98
21 | Cc1ccc(C[n+]2ccn(Cc3c4c(cc5c3OCC5)OCC4)c2)cc1 | > 20 | > 20 | > 20 | > 20 | > 20 |  |  |  |  | 

Row | Structure (SMILES) | IC50 (HL-60; Homo sapiens, HL-60, 48 h) [µM] | IC50 (A549; Homo sapiens, A549, 48 h) [µM] | IC50 (SW480; Homo sapiens, SW480, 48 h) [µM] | IC50 (SMMC-7721; Homo sapiens, SMMC-7721, 48 h) [µM] | IC50 (MCF7; Homo sapiens, MCF7, 48 h) [µM] | IC50 (SMMC-7721; smmc-7721) [µM] | IC50 (HL-60; hl-60) [µM] | IC50 (A549; a549) [µM] | IC50 (SW480; sw480) [µM] | IC50 (MCF7; mcf7) [µM]
22 | O=C(C[n+]1ccn(Cc2c3c(cc4c2OCC4)OCC3)c1)c1ccc2ccccc2c1 | > 20 | > 20 | > 20 | > 20 | > 20 |  |  |  |  | 
23 | Cc1cc2c(cc1C)[n+](Cc1ccc(Br)cc1)cn2Cc1c2c(cc3c1OCC3)OCC2 [listing 2 of 2 here] |  |  |  |  |  | 6.61 | 0.57 | 9.01 | 7.76 | 8.05
24 | COc1ccc(C(=O)C[n+]2ccn(Cc3c4c(cc5c3OCC5)OCC4)c2)cc1 | > 20 | > 20 | > 20 | > 20 | > 20 |  |  |  |  | 
25 | Cc1cc2c(cc1C)[n+](Cc1ccc3ccccc3c1)cn2Cc1c2c(cc3c1OCC3)OCC2 [listing 1 of 2 here] |  | 4.34 | 3.48 | 2.99 |  |  | 1.06 |  |  | 3.94
26 | Cc1cc2c(cc1C)[n+](CC(=O)c1ccc(Br)cc1)cn2Cc1c2c(cc3c1OCC3)OCC2 [listing 2 of 2 here] |  |  |  |  |  | 13 | 2.38 | 15.3 | 15.2 | 18
27 | O=[N+]([O-])c1ccc(C[n+]2cn(Cc3c4c(cc5c3OCC5)OCC4)c3ccccc32)cc1 | > 20 | > 20 | > 20 | > 20 | > 20 |  |  |  |  | 
28 | Cc1n(Cc2c3c(cc4c2OCC4)OCC3)c2ccccc2[n+]1Cc1ccccc1Br | > 20 | > 20 | > 20 | > 20 | > 20 |  |  |  |  | 
29 | Cc1n(Cc2c3c(cc4c2OCC4)OCC3)c2ccccc2[n+]1Cc1ccc([N+](=O)[O-])cc1 | > 20 | > 20 | > 20 | > 20 | > 20 |  |  |  |  | 
30 | Cc1cc2c(cc1C)[n+](Cc1ccccc1Br)cn2Cc1c2c(cc3c1OCC3)OCC2 | 3.18 | 8.64 | 7.87 | 5.96 | 7.29 |  |  |  |  | 
31 | Cc1ccc(C[n+]2cn(Cc3c4c(cc5c3OCC5)OCC4)c3cc(C)c(C)cc32)cc1 [listing 2 of 2 here] |  | 5.82 | 6.15 | 4.43 | 7.39 |  | 1.58 |  |  | 
32 | COc1ccc(C(=O)C[n+]2cn(Cc3c4c(cc5c3OCC5)OCC4)c3ccccc32)cc1 | 5.99 | > 20 | 14 | > 20 | 6.6 |  |  |  |  | 
33 | Cc1ccc(C[n+]2cn(Cc3c4c(cc5c3OCC5)OCC4)c3ccccc32)cc1 | > 20 | > 20 | > 20 | > 20 | > 20 |  |  |  |  | 
34 | Cc1n(Cc2c3c(cc4c2OCC4)OCC3)c2ccccc2[n+]1Cc1ccc2ccccc2c1 | 1.76 | 9.14 | 4.1 | 5.5 | 3.4 |  |  |  |  | 
35 | c1cn(Cc2c3c(cc4c2OCC4)OCC3)cn1 | > 20 | > 20 | > 20 | > 20 | > 20 |  |  |  |  | 
36 | Cc1n(Cc2c3c(cc4c2OCC4)OCC3)c2ccccc2[n+]1Cc1ccc(Br)cc1 | 3.63 | > 20 | 7.22 | 7.42 | 4.86 |  |  |  |  | 
37 | Cc1cc2c(cc1C)[n+](Cc1ccc3ccccc3c1)cn2Cc1c2c(cc3c1OCC3)OCC2 [listing 2 of 2 here] |  |  |  |  |  | 2.98 | 0.29 | 3.62 | 6.84 | 8.34
38 | O=C(C[n+]1cn(Cc2c3c(cc4c2OCC4)OCC3)c2ccccc21)c1ccccc1 | > 20 | > 20 | > 20 | > 20 | > 20 |  |  |  |  | 
39 | c1ccc2cc(C[n+]3cn(Cc4c5c(cc6c4OCC6)OCC5)c4ccccc43)ccc2c1 | 2.3 | 10.7 | 4.11 | 5.66 | 2.62 |  |  |  |  | 
40 | O=C(C[n+]1cn(Cc2c3c(cc4c2OCC4)OCC3)c2ccccc21)c1ccc(Br)cc1 | 5.81 | 16.1 | 5.11 | 5.95 | 5.12 |  |  |  |  | 
41 | c1ccc2cc(C[n+]3ccn(Cc4c5c(cc6c4OCC6)OCC5)c3)ccc2c1 | > 20 | > 20 | > 20 | > 20 | > 20 |  |  |  |  | 
42 | Brc1ccccc1C[n+]1ccn(Cc2c3c(cc4c2OCC4)OCC3)c1 | > 20 | > 20 | > 20 | > 20 | > 20 |  |  |  |  | 
